Laboratory results taken from patent US6331528A, “Method for treatment in gene therapy and use of guanine derivative therefor” (priority 2000, dated 2001).
≈ marks a conversion by molar mass, not a printed value.

How the values were obtained:
[1] = system: mouse granulocyte macrophage precursor cell (CFU-GM); test: Effect on the inhibition of the growth of mouse granulocyte macrophage precursor cell (CFU-GM); format: cell-based, mouse C57BL/6N Crj; settings: for IC50: CFU-GM, 168 h, mouse femur bone marrow cells, 4×10^4 cells/ml, mouse interleukin-3, 7 days, 37° C., read-out: IC50 (inhibition of CFU-GM colony formation)
Protocol: The effects of the guanine derivative for use in accordance with the invention (the free form of the compound represented by the structural formula 1), ganciclovir and aciclovir (Comparative Examples 2 and 2') on the inhibition of the growth of mouse granulocyte macrophage precursor cell (CFU-GM) were tested. The mouse granulocyte macrophage precursor cell of Okano et al. [see Okano A. et al., Transplantation 48 (1989) p. 495-498]. The effects on the inhibition of the growth of CFU-GM were assayed as follows. From the femur bone marrow of mouse C57BL/6N Crj females of age 10 weeks was prepared bone marrow cell, which was then inoculated at a concentration of 4×10^4 cells/ml in a semi-solid culture medium with addition of various concentrations of the guanine derivative, ganciclovir and aciclovir (Iscove's modified Dulbecco's medium, 0.8% carboxymethyl cellulose, 20% FBS, 200 units/ml mouse interleukin-3). The cell was cultured in 37° C. in 5% CO2 in a wet atmosphere on a 35-mm plate for 7 days. The emerging CFU-GM colonies were counted with a differential microscope.

[2] = system: RERF-LC-MA/LZRNL cell; test: Cellular toxicity in control cell with no insertion of HSV-1 thymidine kinase gene (MTT); format: cell-based; settings: Homo sapiens, 96 h, control RERF-LC-MA/LZRNL cell without HSV-1 thymidine kinase gene, 4 days
Protocol: (§1) The cellular toxicities of the quanine derivative for use in accordance with the invention (the compound in the free form represented by the structural formula 1), ganciclovir and aciclovir (Comparative Example 1 and 1') against HSV-1 thymidine kinase gene-introduced cells were tested.
(§2) Human lung small cell carcinoma-derived RERF-LC-MA cell was infected with a viral vector prepared by inserting the thymidine kinase gene in a vector derived from Molony mouse leukemia virus. The resulting RERF-LC-MA/LTRNL cell was used. Furthermore, RERF-LC-MA/LZRNL cell with no insertion of any HSV-1 thymidine kinase gene was used as a control cell. The method for preparing these cells and the assay of the cellular toxicities were according to the method reported by Hasegawa et al. [see Hasegawa Y. et al., Am. J. Respir. Cell Mol. Biol. 8 (6) (1993) p. 655-661]. Based on the assay method of cellular toxicity, the cellular toxicities were confirmed by a calorimetric assay method using MTT [3-(4,5-dimethylthiazol-2-yl)-2,5-diphenyl-tetrazolium bromide].
(§3) The RERF-LC-MA/LTPNL cell suspension was diluted with a culture medium (E-MEM, 10% FBS) and inoculated at 2×10^3 cells/well in a 96-well plate. Then, the pharmaceutical component (guanine derivative) for use in accordance with the invention, ganciclovir and aciclovir were added at various concentrations to these wells. Subsequently, the cellular toxicities were assayed and confirmed by a calorimetric assay humid atmosphere for 4 days and using MTT on day 4.

[3] = background statement; cited from earlier work
[4] = system: RERF-LC-MA/LTRNL cell; test: Cellular toxicity in HSV-1 thymidine kinase gene-introduced cell (MTT); format: cell-based, Human; settings: versus ganciclovir and aciclovir
Protocol: as §1, §2
as §3, with “Subsequently, the cellular toxicities were assayed and confirmed by a calorimetric assay humid atmosphere for 4 days and using MTT on day 4.” left out

Compound | IC50 [1] | IC50 [2] | therapeutic effect [3] | bone marrow toxicity compared with ganciclovir and aciclovir ([1]; inferred from CFU-GM colony IC50) | cellular toxicity effect compared with the conventional products [4]
Nc1nc2c(ncn2COCCO)c(=O)[nH]1 [aciclovir] | 26 µg/mL (≈ 115 µM) | ≥ 250 µg/mL | extremely poor therapeutic effect |  | 
Nc1nc(O)c2ncn(COC(CO)CO)c2n1 [ganciclovir] | 18 µg/mL (≈ 70.5 µM) | ≥ 201 µg/mL |  |  | 
Nc1nc2c(ncn2C[C@]2(CO)C[C@H]2CO)c(=O)[nH]1 [guanine derivative, (-)-9-[1'S,2'R-bis(hydroxymethyl)cyclopropan-1'-yl]methylguanine] | ≥ 66 µg/mL | ≥ 135 µg/mL |  | possibly weaker than those of ganciclovir and aciclovir | more excellent cellular toxicity effect, compared with the conventional products
